Literature values, collected in US20170266197A1, “METHODS AND COMPOSITIONS FOR TREATING HEPATITIS B VIRUS INFECTIONS” (Indiana University Research and Technology Corporation, priority 2014, published 2017).

System: chronic hepatitis B infection

alpha interferon
patients who show a long term benefit (many patients relapse after treatment is stopped): about 30%
patients who respond to the treatment (of the chronic carriers obtaining this therapy): about 40%
viral disappearance in treated patients (treated patients): 10-20%
